Where two headings read alike, the source gives them in different places.
Assays:
[1] = test system: ctDNA; assay: UV-visible absorption titration with ctDNA; assay type: binding, calf thymus; settings: Tris–HCl buffer pH 7.2
[2] = test system: tRNA; assay: UV-visible absorption titration with tRNA; assay type: binding, yeast; settings: Tris–HCl buffer pH 7.2
[3] = test system: ctDNA; assay: Ethidium bromide displacement, fluorescence quenching of EB-ctDNA adduct; assay type: binding, calf thymus; settings: λem = 580 nm; for Quenching constant (Ksv), emission spectroscopy, ctDNA: EB 5 μM, DNA 50 μM, [Q] 10–200 μM
[4] = test system: tRNA; assay: Ethidium bromide displacement, fluorescence quenching of EB-tRNA adduct; assay type: binding, yeast; settings: λem = 580 nm; for Quenching constant (Ksv), emission spectroscopy, tRNA: EB 5 μM, RNA 50 μM, [Q] 10–200 μM
[5] = biological target: T1, Bovine serum albumin (BSA) (Bos taurus, UniProt P02769); assay: BSA absorption titration; assay type: binding; settings: λmax = 278 nm
[6] = biological target: T1, Bovine serum albumin (BSA); assay: BSA fluorescence quenching; assay type: binding; settings: λmax = 345 nm; for Quenching rate constant (Kq), BSA emission: τ0 = 10^−8 s
[7] = test system: WI38 normal lung fibroblast cells; assay: MTT in vitro cytotoxicity, WI38; assay type: cell-based, human; settings: read-out: In vitro cytotoxicity IC50, WI38
[8] = test system: HeLa cervical carcinoma cells; assay: MTT in vitro cytotoxicity, HeLa; assay type: cell-based, human; settings: for Selective index (SI), HeLa: vs WI38; for IC50: read-out: In vitro cytotoxicity IC50, HeLa
[9] = test system: MCF7 breast carcinoma cells; assay: MTT in vitro cytotoxicity, MCF7; assay type: cell-based, human; settings: for Selective index (SI), MCF7: vs WI38; for IC50: read-out: In vitro cytotoxicity IC50, MCF7
[10] = Solution stability by UV-visible spectroscopy in PBS; assay type: physicochemical; settings: PBS pH 7.2 / DMSO, 2.5 × 10^−5 M, up to 48 h
[11] = test system: HeLa cervical carcinoma cells; settings: read-out: In vitro cytotoxicity IC50, HeLa; 48 h ref [85]; cited from earlier work
[12] = test system: MCF7 breast carcinoma cells; settings: read-out: In vitro cytotoxicity IC50, MCF7; 24 h ref [84]; cited from earlier work
[13] = test system: HeLa cells; assay: Cell cycle distribution by flow cytometry; assay type: cell-based, human; settings: IC50 concentration, 24 h, control 20.3%
[14] = test system: HeLa cells; assay: Annexin V/propidium iodide flow cytometry; assay type: cell-based, human; settings: IC50, 24 h

T1 sequence (P02769 25-607): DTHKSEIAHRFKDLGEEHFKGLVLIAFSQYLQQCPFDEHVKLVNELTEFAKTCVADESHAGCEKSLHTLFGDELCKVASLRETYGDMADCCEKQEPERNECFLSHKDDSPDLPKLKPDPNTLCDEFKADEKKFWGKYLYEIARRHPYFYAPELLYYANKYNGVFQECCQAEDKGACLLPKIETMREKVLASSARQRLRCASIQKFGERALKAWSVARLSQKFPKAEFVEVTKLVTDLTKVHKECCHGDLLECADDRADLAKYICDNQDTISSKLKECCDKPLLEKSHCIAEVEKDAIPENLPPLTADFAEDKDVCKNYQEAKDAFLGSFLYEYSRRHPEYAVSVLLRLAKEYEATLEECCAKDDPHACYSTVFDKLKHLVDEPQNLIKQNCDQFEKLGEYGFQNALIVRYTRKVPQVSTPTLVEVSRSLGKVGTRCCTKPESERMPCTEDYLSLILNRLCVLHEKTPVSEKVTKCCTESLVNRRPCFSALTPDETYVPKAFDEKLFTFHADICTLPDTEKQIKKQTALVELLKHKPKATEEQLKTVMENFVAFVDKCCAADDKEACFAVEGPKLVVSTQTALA

Molecule | % H* (hypochromism), absorption spectroscopy, ctDNA [1] | % H* (hypochromism), absorption spectroscopy, tRNA [2] | % H, emission spectroscopy, ctDNA [3] | Quenching constant (Ksv), emission spectroscopy, ctDNA [3] | % H, emission spectroscopy, tRNA [4] | Quenching constant (Ksv), emission spectroscopy, tRNA [4] | % hyper (hyperchromism), BSA absorption spectroscopy [5] | % hypo, BSA emission spectroscopy [6] | Number of binding sites (n), BSA emission [6] | Stern–Volmer quenching constant (Ksv), BSA emission [6] | Quenching rate constant (Kq), BSA emission [6] | IC50 ([7]; 24 h) | IC50 ([7]; 48 h) | Selective index (SI), HeLa ([8]; 24 h) | Selective index (SI), HeLa ([8]; 48 h) | IC50 ([8]; 24 h) | IC50 ([8]; 48 h) | Selective index (SI), MCF7 ([9]; 24 h) | IC50 ([9]; 24 h) | IC50 ([9]; 48 h) | further results
3-acetylcoumarin benzoylhydrazone [HL] | 8.35% | 7.20% | 32.4% | 0.34 ×10^4 | 26.1% | 1.19 ×10^4 | 39.03% | 27.18% | 0.93 | 2.33 × 10^4 | 2.33e+12 M⁻¹ s⁻¹ | 71.1 ± 3.4 µM | 75 ± 3.5 µM | 1.15 | 1.57 | 61.6 ± 3.1 µM | 47.6 ± 2.9 µM | 1.74 | 40.8 ± 2.6 µM | 36.8 ± 2.4 µM | Selective index (SI), MCF7 ([9]; 48 h): 2.03; Solution stability (changes of UV-visible spectrum with time) [10]: insignificant changes up to the first 3 h then suffered hydrolysis in the aqueous media through the next 24 h
N.N.[Cl][Pt][Cl] [Cisplatin, cis-platin] | – | – | – | – | – | – | – | – | – | – | – | – | – | – | – | – | – | – | – | – | IC50 [11]: 67.6 ± 2 µM; IC50 [12]: 31.2 ± 1.8 µM
[Ag(HL)2]NO3 [Complex C3] | 6.81% | 6.66% | 50.1% | 0.52 ×10^4 | 26.9% | 1.6 ×10^4 | 40.74% | 35.69% | 0.92 | 4.98 × 10^4 | 4.98e+12 M⁻¹ s⁻¹ | 75.4 ± 3.6 µM | 63.6 ± 3.3 µM | 1.93 | 1.95 | 39.1 ± 2.5 µM | 32.5 ± 2.3 µM | 1.28 | 58.8 ± 2.9 µM | 54 ± 3 µM | Solution stability (changes of UV-visible spectrum with time) [10]: slight decrease in absorption intensity
[Pt(HL)Cl]Cl [Complex C2] | 10.4% | 7.60% | 54.2% | 1.42 ×10^4 | 48.8% | 4.51 ×10^4 | 11.90% | 42.63% | 1.03 | 5.39 × 10^4 | 5.39e+12 M⁻¹ s⁻¹ | 29.5 ± 2.2 µM | 31.3 ± 2.2 µM | 3.63 | 4.95 | 8.12 ± 0.7 µM | 6.31 ± 0.4 µM | 2.39 | 12.3 ± 0.9 µM | 8.61 ± 0.6 µM | Selective index (SI), MCF7 ([9]; 48 h): 3.63; Cells in G2/M phase [13]: 20.3%; Change of necrotic cells compared to untreated HeLa cells [14]: 1.6 fold; Solution stability (changes of UV-visible spectrum with time) [10]: insignificant changes during the 48 h test
